Where two headings read alike, the source gives them in different places.

The results in this text go back to patent US4436662A, “Pyrrolo[3,4-d][2]benzazepinones” (Hoffmann-La Roche Inc., priority 1983, dated 1984).

The target of series [1] is 3H-Diazepam binding, rat brain cortical fragments. Description: 3H-Diazepam Binding Assay. The conditions noted are these: read-out: IC50 (nM), concentration required to inhibit binding by 50%, Tris buffer, assayed in triplicate. As to the method:
Brief-Description: Rat brain cortical fragments are prepared and the binding procedures performed as described by Mohler and Okada (Life Sciences, 20, 2101, 1977) except that Tris buffer is substituted for Krebs buffer. Drugs are assayed in triplicate.
Measurements Made: Radioactivity is measured by liquid scintillation counting.

For series [2], the system named is convulsions (metrazol iv). The experiment in a line: Intravenous Antimetrazol Test. It is filed as in vivo, Male CF-1 mice. The conditions noted are these: Mus musculus, po, 1 h. As to the method:
Intravenous Antimetrazol Test
Brief Description: Male CF-1 mice, 45-54 days old, housed in facilities for one week and food-deprived for about 24 hours, are used in this test. The test compound, dispersed in 5% acacia, is administered orally to three mice at 1/10 the dose at which lethality occurred in the TSP testing. One hour later, metrazol is administered intravenously at 70 mg/kg (convulsant dose 100 mg/kg) and animals are observed 30 seconds for protection against convulsions. If the compound is active orally, 3 animals are used per dose level.
Measurements Made: The number of animals protected from convulsions.
Calculations: If the drug is active and three mice are used per dose level, the approximate ED50 is calculated by the method of Miller and Tainter (Proc. Soc. Exp. Biol. Med. 57:261, 1944). If six or more mice are used per dose level, the ED50 values and 95% fiducial limits are calculated using a computer program based on the method of D. J. Finney ("Probit Analysis", Cambridge University Press, Cambridge, England, 1971).

A short description of series [3]: LD50 (po) acute lethality. Also noted: species or system mice. As to conditions: mouse, in vivo.
[4] abbreviates: standard drugs, read-out: ED50 (95% Fiducial Limits).
Where [5] appears, read: 1 hour before metrazol 70 mg/kg iv, 50% of animals protected from convulsive seizures, test compounds, read-out: ED50.
Setting [6] is: mice, printed in binding results table.
Where [7] appears, read: printed in antimetrazol results table.

As for `CCN(CC)CCN1C(=O)CN=C(c2ccccc2F)c2cc(Cl)ccc21` [Flurazepam, reference compound], in series [1], the IC50 was 15.6 nM. The term ED50 denotes the midpoint of the dose-response relation. `CN1C(=O)CN=C(c2ccccc2)c2cc(Cl)ccc21` [Diazepam]: the ED50 in series [2] (setting [4]) turned out to be 1 mg/kg. One may read the LD50 as the dose expected to kill half of the subjects tested. A low value points to a more toxic substance. Turning to `CN1CC2=C(CN=C(c3ccccc3Cl)c3cc(Cl)ccc32)C1=O` [8-chloro-6-(2-chlorophenyl)-1,4-dihydro-2-methylpyrrolo[3,4-d][2]benzazepin-3(2H)-one], the median effective dose (ED50) in series [2] (setting [5]) was found to be 0.08 mg/kg. Moreover, the LD50 in series [3] (setting [6]) and in series [3] (setting [7]) was 800 mg/kg throughout. As to `CCC1(c2ccccc2)C(=O)NC(=O)NC1=O` [Sodium Phenobarbital], the 50% effective dose (ED50) in series [2] (setting [4]) was determined as 19 mg/kg. With `CNC1=Nc2ccc(Cl)cc2C(c2ccccc2)=[N+]([O-])C1` [Chlordiazepoxide], the ED50 in series [2] (setting [4]) is 3.9 mg/kg. In the case of `CC1NC(=O)C2=C1c1ccc(Cl)cc1C(c1ccccc1Cl)=NC2` (centres unmarked) [8-Chloro-6-(2-chlorophenyl)-1,4-dihydro-1-methylpyrrolo[3,4-d][2]benzazepin-3(2H)-one], the IC50 in series [1] was found to be 1 nM. In addition, the ED50 in series [2] (setting [5]) amounted to 0.08 mg/kg. The median lethal dose (LD50) in series [3] (setting [6]) and in series [3] (setting [7]) was more than 1000 mg/kg throughout.
